Data published in US7368570B2, “Organometallic complexes as singlet oxygen sensitizers” (University of Southern California, priority 2003, dated 2008).

Columns and labels:
[1] = singlet oxygen luminescence quenching rate constants; assay type: physicochemical; conditions: for kq singlet oxygen quenching rate: Table 3, not marked MeOD, TPP in benzene or chloroform
Method: (§1) TPP in benzene or chloroform with OD 0.5-0.7 was used as blank/solvent solution to produce singlet oxygen. The intensity of ^1O2 luminescence signals was measured at 532 nm excitation in air-saturated solutions with a liquid nitrogen cooled germanium photodiode at 1268 nm. 0.02-0.5 mL quencher stock solution of Ir(III) complexes in […] was added to the blank solution. The decay trace of singlet oxygen was then re-measured, and the additions repeated 6-10 times. Singlet oxygen quenching rate constants by the Ir(III) complexes were obtained from the slopes of Stern Volmer plots (See FIG. 7).

[2] = quantum yield for singlet oxygen production from 1O2 luminescence at 1268 nm; assay type: physicochemical; conditions: for ΦΔ532 nm: only measured if compounds absorb at 532 nm; for ΦΔ quantum yield for singlet oxygen generation: benzene, air-saturated
Text: The quantum yields for singlet oxygen production (ΦΔ) were obtained by measuring the intensity of the ^1O2 luminescence signal (λmax=1268 nm). Measurements were taken with 355 and 532 nm excitation (λ), in air-saturated solutions.
The quantum yields were obtained by measuring the intensity of the ^1O2 luminescence signal (λmax=1268 nm), with a liquid nitrogen cooled germanium photodiode. Measurements were taken at 355 and 532 nm excitation, in air-saturated solutions, with TPP, C60 and Perinaphthenone as references. The optical density of the photosensitizer solutions was generally kept between 0.05 and 0.4 at 355 nm excitation wavelength, and 0.03 and 0.2 at 532 nm excitation wavelength.

[3] = from references (footnote e), cited from earlier work; for λem: emission
[4] = phosphorescence emission properties in solution; assay type: physicochemical; conditions: room temperature, from the phosphorescence spectrum
Text: Table 3 provides quantum yields and singlet oxygen quenching rates for Ir(III) and Pt(II) complexes of this invention. Eem(eV)=the emission maximum energy in eV at room temperature, as determined from the phosphorescence spectrum; ΦPE=the quantum efficiency for emission in solution; τPE=the emission lifetime at room temperature or 77K (in solution).

[5] = oxidation and excited state redox potentials; assay type: physicochemical
solubility = assay type: physicochemical
Method: as §1

[6] = 355 nm, reference value; cited from earlier work
[7] = 355 nm excitation, Table 3, not marked MeOD

Molecule	kq singlet oxygen quenching rate [1]	ΦΔ355 nm [2, 7]	ΦΔ532 nm ([2]; 532 nm excitation)	λem [3] [nm]	Eem emission maximum energy [4] [eV]	also measured
CC(=Nc1cc(C)cc(C)c1)C(C)=Nc1cc(C)cc(C)c1.[CH3][Pt][CH3] [(CyPh2)PtMe2]	(1.5 ± 0.1) × 10^9 M^−1s^−1	0	0	–	–	–
[CH3][Pt]1([CH3])[N]2C=CC=c3ccc4c(c32)[N]1C=CC=4 [(Phen)PtMe2]	(2.0 ± 0.2) × 10^9 M^−1s^−1	0	0	–	–	–
CC1=CC(c2ccccc2)=c2ccc3c4c2[N]1[Pt]([CH3])([CH3])[N]4C(C)=CC=3c1ccccc1 [(PhenPh2)PtMe2]	(1.7 ± 0.2) × 10^9 M^−1s^−1	0	0	–	–	–
CC(=O)C=C(C)[O][Ir]([c]1ccccc1-c1nc2ccccc2o1)[c]1ccccc1-c1nc2ccccc2o1 [(bo)2Ir(acac)]	(1.8 ± 0.3) × 10^5 M^−1s^−1	0.76 ± 0.06	–	525	2.36	ΦPE quantum efficiency for emission in solution [3]: 0.25
[CH3][Pt][CH3].c1ccc(-c2ccccn2)nc1 [(bpy)PtMe2]	(2.4 ± 0.1) × 10^9 M^−1s^−1	0	0	–	–	–
c1ccc(-c2cccc[c]2[Ir]([c]2ccccc2-c2ccccn2)[c]2ccccc2-c2ccccn2)nc1 [(ppy)3Ir, Tris-(2-phenylpyridinato, N, C^2′) iridium (III)]	–	0.92 ± 0.07	–	–	–	E(Sen^+/*) excited state redox potential ([5]; vs. NHE, E00 estimated using Eem): −1.45 V; E(Sen^+/0) oxidation potential ([5]; vs. ferrocene/ferrocenium): 0.32 V; solubility remark (solubility; Table 3, not marked MeOD): Not soluble
NCC(=O)[O][Ir]([c]1ccc2ccccc2c1-c1nc2ccccc2s1)[c]1ccc2ccccc2c1-c1nc2ccccc2s1 [BSN-G, iridium(III) bis(2-(1-naphthyl)benzothiazolato-N,C^2)glycinate]	(2.1 ± 0.5) × 10^6 M^−1s^−1	0.54 ± 0.02	0.81 ± 0.06	606	2.05	solubility remark (solubility; line marked measured in MeOD): Not soluble; ΦΔ quantum yield for singlet oxygen generation ([2]; 355 nm excitation): 0.54 ± 0.02; ΦΔ355 nm ([2]; 355 nm excitation, measured in MeOD): 0.62 ± 0.05; ΦΔ quantum yield for singlet oxygen generation ([2]; 532 nm excitation): 0.81 ± 0.06
O=C1C=Cc2cccc3cccc1c23 [Perinaphthenone]	–	–	–	–	–	ΦΔ of reference for quantum yield measurements [6]: 0.95
c12c3c4c5c1c1c6c7c2c2c8c3c3c9c4c4c%10c5c5c1c1c6c6c%11c7c2c2c7c8c3c3c8c9c4c4c9c%10c5c5c1c1c6c6c%11c2c2c7c3c3c8c4c4c9c5c1c1c6c2c3c41 [Photosensitizer C60]	–	–	–	–	–	ΦΔ of reference for quantum yield measurements [6]: 0.76
iridium(III) bis(2-phenylbenzothiazolato-N, C^2)pyridyl chloride [BT-py]	–	0.95 ± 0.09	1.00 ± 0.09	558	2.23	singlet oxygen quenching, in words [1]: no measurable singlet oxygen quenching; kq(^1O2) singlet oxygen quenching rate ([1]; benzene): None; singlet oxygen quantum yield / production, in words [2]: high quantum yield; ΦΔ quantum yield for singlet oxygen generation ([2]; 355 nm excitation): 0.95 ± 0.09; ΦΔ quantum yield for singlet oxygen generation ([2]; 532 nm excitation): 1.00 ± 0.09
